Reference: US11919856B2, “Compounds” (UCL BUSINESS LTD, priority 2018, dated 2024)

How the values were obtained:
Z α1-antitrypsin = Z α1-antitrypsin (Homo sapiens, UniProt P01009, E366K/V237A); test: Circulating monomeric Z α1-antitrypsin in plasma of Z α1-antitrypsin transgenic mice; format: in vivo; set-up: a random insertion of the human Z α1-antitrypsin gene; from tissue; host or cells: liver and plasma of Z α1-antitrypsin transgenic mice (human Z transgene)
Procedure: In order to investigate the therapeutic potential of Compound 1 in Z α1-antitrypsin deficiency, the compound was tested in a transgenic mouse model engineered with a random insertion of the human Z α1-antitrypsin gene (Teckman et al. Am J Physiol Gastrointest Liver Physiol. 2004; 286:G851-G62). To determine a suitable dose regimen for Compound 1 in these studies the total and unbound exposure in transgenic mice was estimated in an in silico model.
To explore the PK-PD relationship of Compound 1, Z α1-antitrypsin transgenic animals were dosed with 100, 30 or 10 mg/kg Compound 1 three times a day and on day 6 blood and liver were harvested at 3 hr (˜Cmax) and 8 hr (Cmin) after the dose for the measurement of total and free drug in both tissues. Blood was also harvested for the measurement of monomeric Z α1-antitrypsin in plasma. Total concentrations of Compound 1 were determined by specific LC-MS/MS assay and the free unbound drug in both tissues was determined using equilibrium dialysis and used to derive unbound concentrations.
Recent work has shown that a significant fraction of the total Z α1-antitrypsin in the circulation is in the polymeric conformation (Tan et al. Eur Respir J. 2014; 43(5):1501-4). […] Monomeric Z α1-antitrypsin was measured in plasma samples following 6 days of dosing and levels were normalised to each animals' pre-dose control levels to account for the natural variation of Z α1-antitrypsin between animals. […]
Since Compound 1 blocks polymer formation in cells the effect of dosing Compound 1 on liver polymer levels was explored. […] On days 15 and 21 of dosing, changes of monomeric Z α1-antitrypsin plasma samples were determined as above, and increases of 7- to 8-fold over the pre-dosing baseline levels were observed, similar to the effect in animals dosed for 3 or 6 days, consistent with sustained target engagement through the dosing period. […] There was no difference observed in total liver polymer load via manual or quantitative scoring.

Permeability = format: in vitro ADME

Chain of Z α1-antitrypsin (P01009 25-418 V237A/E366K): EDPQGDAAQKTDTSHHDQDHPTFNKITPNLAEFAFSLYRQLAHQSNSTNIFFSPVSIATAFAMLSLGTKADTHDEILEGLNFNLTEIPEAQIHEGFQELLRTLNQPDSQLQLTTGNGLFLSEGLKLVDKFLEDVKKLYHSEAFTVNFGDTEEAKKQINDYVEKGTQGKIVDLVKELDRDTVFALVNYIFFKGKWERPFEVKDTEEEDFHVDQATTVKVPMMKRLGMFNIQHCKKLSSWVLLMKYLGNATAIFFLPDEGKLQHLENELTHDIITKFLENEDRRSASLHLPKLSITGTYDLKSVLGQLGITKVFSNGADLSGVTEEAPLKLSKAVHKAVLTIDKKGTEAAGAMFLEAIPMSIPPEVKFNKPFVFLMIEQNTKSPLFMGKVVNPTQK

SMILES: CCC[C@@H](NC(=O)c1cccc2c1CC(=O)N2)[C@@H](O)c1cccc(F)c1C [Compound 1, N-[(1S,2R)-1-(3-fluoro-2-methylphenyl)-1-hydroxypentan-2-yl]-2-oxo-2,3-dihydro-1H-indole-4-carboxamide]
- increase in circulating Z α1-antitrypsin (Z α1-antitrypsin; 30 mg/kg and 10 mg/kg three times a day, 6 days): significant, dose-dependent increases
- increase of plasma concentrations of the serpin (Z α1-antitrypsin; transgenic mouse model): up to 8 fold
- increase in circulating levels of Z α1-antitrypsin (Z α1-antitrypsin; within 3 days of dosing, maintained throughout the experiment): 7 fold
- Permeability (Permeability): high
